# Data: patent publication US6677466B1, “Method for stabilizing hydrogen peroxide” (DSM Fine Chemicals Austria NFG GmbH & Co KG, priority 1999, dated 2004)
# Test: O2 evolution from [Mn2O3{Me3tacn}2](PF6)2-catalysed decomposition of H2O2 with stabilizer
# Assay type: physicochemical
# Method: A 50% strength aqueous solution of H2O2 (304 mg; 4.46 mmol) was added to 454 mg (4.46 mmol) of methyl pyruvate and to 535 mg (4.46 mmol) of glyoxylic methyl ester methyl hemiacetal, respectively. In the case of methyl pyruvate, a marked evolution of heat was discovered during the addition. After one hour, the H2O2/α-keto ester mixture was mixed with 1 ml of solvent and added to a suspension of 1.0 mg of [Mn2O3{Me3tacn}2](PF6)2 catalyst in 4 ml of solvent. The suspension was introduced into a 50 ml flask which was maintained at room temperature in a water bath. As a result of this addition, in cases where undissolved catalyst was still present, the catalyst dissolved completely.
# As a comparison, a suspension of 1.0 mg of [Mn2O3{Me3tacn}2](PF6)2 catalyst in 4 ml of solvent was combined with a 50% strength aqueous solution of H2O2 (304 mg; 4.46 mmol) and 1 ml of solvent without stabilizer.
# The amount of oxygen which was evolved from the decomposition of the hydrogen peroxide was determined as a function of time using a Brooks meter, which permitted measurement of the gas flow and the total amount of evolved gas.
smiles,measurement,setting,value
"COC(=O)C(O)OC (stereo not drawn) [GMHA, glyoxylic methyl ester methyl hemiacetal]",O2 evolution V(O2) (Vmax(O2)*100%),"solv. acetic acid, t 5 min",0%
same,O2 evolution V(O2) (Vmax(O2)*100%),"solv. acetic acid, t 10 min",2%
same,O2 evolution V(O2) (Vmax(O2)*100%),"solv. acetic acid, t 15 min",3%
same,O2 evolution V(O2) (Vmax(O2)*100%),"solv. acetic acid, t 20 min",3%
same,O2 evolution V(O2) (Vmax(O2)*100%),"solv. acetic acid, t 25 min",3%
same,O2 evolution V(O2) (Vmax(O2)*100%),"solv. acetic acid, t 30 min",3%
same,O2 evolution V(O2) (Vmax(O2)*100%),"solv. acetic acid, t 35 min",3%
same,O2 evolution V(O2) (Vmax(O2)*100%),"solv. acetic acid, t 40 min",3%
same,O2 evolution V(O2) (Vmax(O2)*100%),"solv. acetic acid, t 50 min",3%
same,O2 evolution V(O2) (Vmax(O2)*100%),"solv. acetic acid, t 60 min",3%
same,O2 evolution V(O2) (Vmax(O2)*100%),"solv. acetic acid, t 70 min",3%
same,O2 evolution V(O2) (Vmax(O2)*100%),"solv. acetic acid, t 80 min",3%
same,O2 evolution V(O2) (Vmax(O2)*100%),"solv. acetone, t 5 min",0%
same,O2 evolution V(O2) (Vmax(O2)*100%),"solv. acetone, t 10 min",0%
same,O2 evolution V(O2) (Vmax(O2)*100%),"solv. acetone, t 15 min",0%
same,O2 evolution V(O2) (Vmax(O2)*100%),"solv. acetone, t 20 min",0%
same,O2 evolution V(O2) (Vmax(O2)*100%),"solv. acetone, t 25 min",0%
same,O2 evolution V(O2) (Vmax(O2)*100%),"solv. acetone, t 30 min",0%
same,O2 evolution V(O2) (Vmax(O2)*100%),"solv. acetone, t 35 min",0%
same,O2 evolution V(O2) (Vmax(O2)*100%),"solv. acetone, t 40 min",0%
same,O2 evolution V(O2) (Vmax(O2)*100%),"solv. acetone, t 50 min",0%
same,O2 evolution V(O2) (Vmax(O2)*100%),"solv. acetone, t 60 min",9%
same,O2 evolution V(O2) (Vmax(O2)*100%),"solv. acetone, t 70 min",12%
same,O2 evolution V(O2) (Vmax(O2)*100%),"solv. acetone, t 80 min",12%
same,O2 evolution V(O2) (Vmax(O2)*100%),"solv. acetonitrile, t 5 min",0%
same,O2 evolution V(O2) (Vmax(O2)*100%),"solv. acetonitrile, t 10 min",0%
same,O2 evolution V(O2) (Vmax(O2)*100%),"solv. acetonitrile, t 15 min",0%
same,O2 evolution V(O2) (Vmax(O2)*100%),"solv. acetonitrile, t 20 min",0%
same,O2 evolution V(O2) (Vmax(O2)*100%),"solv. acetonitrile, t 25 min",0%
same,O2 evolution V(O2) (Vmax(O2)*100%),"solv. acetonitrile, t 30 min",0%
same,O2 evolution V(O2) (Vmax(O2)*100%),"solv. acetonitrile, t 35 min",0%
same,O2 evolution V(O2) (Vmax(O2)*100%),"solv. acetonitrile, t 40 min",0%
same,O2 evolution V(O2) (Vmax(O2)*100%),"solv. acetonitrile, t 50 min",0%
same,O2 evolution V(O2) (Vmax(O2)*100%),"solv. acetonitrile, t 60 min",0%
same,O2 evolution V(O2) (Vmax(O2)*100%),"solv. acetonitrile, t 70 min",0%
same,O2 evolution V(O2) (Vmax(O2)*100%),"solv. acetonitrile, t 80 min",0%
same,O2 evolution V(O2) (Vmax(O2)*100%),"solv. ethyl acetate, t 5 min",0%
same,O2 evolution V(O2) (Vmax(O2)*100%),"solv. ethyl acetate, t 10 min",4%
same,O2 evolution V(O2) (Vmax(O2)*100%),"solv. ethyl acetate, t 15 min",8%
same,O2 evolution V(O2) (Vmax(O2)*100%),"solv. ethyl acetate, t 20 min",9%
same,O2 evolution V(O2) (Vmax(O2)*100%),"solv. ethyl acetate, t 25 min",9%
same,O2 evolution V(O2) (Vmax(O2)*100%),"solv. ethyl acetate, t 30 min",9%
same,O2 evolution V(O2) (Vmax(O2)*100%),"solv. ethyl acetate, t 35 min",9%
same,O2 evolution V(O2) (Vmax(O2)*100%),"solv. ethyl acetate, t 40 min",9%
same,O2 evolution V(O2) (Vmax(O2)*100%),"solv. ethyl acetate, t 50 min",9%
same,O2 evolution V(O2) (Vmax(O2)*100%),"solv. ethyl acetate, t 60 min",9%
same,O2 evolution V(O2) (Vmax(O2)*100%),"solv. ethyl acetate, t 70 min",9%
same,O2 evolution V(O2) (Vmax(O2)*100%),"solv. ethyl acetate, t 80 min",9%
same,O2 evolution V(O2) (Vmax(O2)*100%),"solv. methanol, t 5 min",1%
same,O2 evolution V(O2) (Vmax(O2)*100%),"solv. methanol, t 10 min",1%
same,O2 evolution V(O2) (Vmax(O2)*100%),"solv. methanol, t 15 min",1%
same,O2 evolution V(O2) (Vmax(O2)*100%),"solv. methanol, t 20 min",1%
same,O2 evolution V(O2) (Vmax(O2)*100%),"solv. methanol, t 25 min",1%
same,O2 evolution V(O2) (Vmax(O2)*100%),"solv. methanol, t 30 min",1%
same,O2 evolution V(O2) (Vmax(O2)*100%),"solv. methanol, t 35 min",1%
same,O2 evolution V(O2) (Vmax(O2)*100%),"solv. methanol, t 40 min",1%
same,O2 evolution V(O2) (Vmax(O2)*100%),"solv. methanol, t 50 min",1%
same,O2 evolution V(O2) (Vmax(O2)*100%),"solv. methanol, t 60 min",1%
same,O2 evolution V(O2) (Vmax(O2)*100%),"solv. methanol, t 70 min",1%
same,O2 evolution V(O2) (Vmax(O2)*100%),"solv. methanol, t 80 min",1%
same,O2 evolution V(O2) (Vmax(O2)*100%),"solv. t-butanol, t 5 min",0%
same,O2 evolution V(O2) (Vmax(O2)*100%),"solv. t-butanol, t 10 min",0%
same,O2 evolution V(O2) (Vmax(O2)*100%),"solv. t-butanol, t 15 min",0%
same,O2 evolution V(O2) (Vmax(O2)*100%),"solv. t-butanol, t 20 min",0%
same,O2 evolution V(O2) (Vmax(O2)*100%),"solv. t-butanol, t 25 min",0%
same,O2 evolution V(O2) (Vmax(O2)*100%),"solv. t-butanol, t 30 min",0%
same,O2 evolution V(O2) (Vmax(O2)*100%),"solv. t-butanol, t 35 min",0%
same,O2 evolution V(O2) (Vmax(O2)*100%),"solv. t-butanol, t 40 min",0%
same,O2 evolution V(O2) (Vmax(O2)*100%),"solv. t-butanol, t 50 min",0%
same,O2 evolution V(O2) (Vmax(O2)*100%),"solv. t-butanol, t 60 min",0%
same,O2 evolution V(O2) (Vmax(O2)*100%),"solv. t-butanol, t 70 min",0%
same,O2 evolution V(O2) (Vmax(O2)*100%),"solv. t-butanol, t 80 min",0%
